Laboratory results from publication PMC6481325, “Novel N,N-dialkyl cyanocinnamic acids as monocarboxylate transporter 1 and 4 inhibitors” (Oncotarget, 2019).
Where two headings read alike, the source gives them in different places.

Assays:
[1] = test system: MCT1 expressing WiDr cells; test: Seahorse XFe96 mitochondrial stress test (OCR), WiDr; assay type: cell-based; details: 30 μM
Procedure: (§1) Extracellular acidification rates (ECAR) and oxygen consumption rates (OCR) were recorded in real-time for glycolysis stress test (GST) and mitochondrial stress test (MST), respectively, using Agilent Seahorse XFe96® analyzer.

[2] = test system: MCT4 expressing MDA-MB-231 cells; test: Seahorse XFe96 mitochondrial stress test (OCR), MDA-MB-231; assay type: cell-based; details: 30 μM
Procedure: as §1

[3] = test system: MCT4 expressing MDA-MB-231 cells; test: Seahorse XFe96 glycolysis stress test (ECAR), MDA-MB-231; assay type: cell-based; details: 30 μM
Procedure: (§2) In the GST, three parameters namely glycolysis, glycolytic capacity and glycolytic reserve were measured.
as §1

[4] = test system: MCT1 expressing WiDr cells; test: Seahorse XFe96 glycolysis stress test (ECAR), WiDr; assay type: cell-based; details: 30 μM
Procedure: as §2, §1

[5] = target: T1, MCT4 (Homo sapiens, UniProt O15427); test: L-[14C]-lactate uptake study in MCT4 expressing MDA-MB-231 cells; assay type: cell-based
T1 construct: These cells predominantly express MCT4 as confirmed by Western blot and quantitative PCR analysis; host or cells: MDA-MB-231
T1 sequence (O15427 2-465 limits assumed): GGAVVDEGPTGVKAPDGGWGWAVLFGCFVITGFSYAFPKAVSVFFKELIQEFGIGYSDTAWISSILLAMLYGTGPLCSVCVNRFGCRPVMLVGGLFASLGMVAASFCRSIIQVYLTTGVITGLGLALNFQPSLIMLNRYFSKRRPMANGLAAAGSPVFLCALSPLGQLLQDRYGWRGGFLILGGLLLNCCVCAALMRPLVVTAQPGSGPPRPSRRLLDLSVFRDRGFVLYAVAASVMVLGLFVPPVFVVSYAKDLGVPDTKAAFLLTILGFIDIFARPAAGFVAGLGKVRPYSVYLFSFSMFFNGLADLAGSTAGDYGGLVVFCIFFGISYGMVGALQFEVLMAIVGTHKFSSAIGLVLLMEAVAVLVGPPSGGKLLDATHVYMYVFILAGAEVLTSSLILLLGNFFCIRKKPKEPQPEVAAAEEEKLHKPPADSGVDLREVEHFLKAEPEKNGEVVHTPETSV
T1 sequence (P35613 140-385 partner limits assumed): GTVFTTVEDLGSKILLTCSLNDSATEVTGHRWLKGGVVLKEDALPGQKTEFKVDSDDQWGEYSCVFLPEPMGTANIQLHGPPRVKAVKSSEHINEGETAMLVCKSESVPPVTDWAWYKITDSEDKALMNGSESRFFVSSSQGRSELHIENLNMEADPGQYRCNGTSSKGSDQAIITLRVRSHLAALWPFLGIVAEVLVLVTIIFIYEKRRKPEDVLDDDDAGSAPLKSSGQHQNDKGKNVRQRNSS
Procedure: In this study, an L-[^14C]-lactate based transport assay was developed by us to quantify MCT4 transport and its inhibition by test compounds. […] For the MCT4 transport assay, the pH of HEPES buffer with L-[^14C]-lactate was adjusted to 7.0 such that lactate influx into the cells was aided by the pH gradient. […] Test compounds were diluted to working concentration in HEPES buffer (140 mM NaCl, 5 mM KCl, 2 mM CaCl2, 2 mM MgCl2, 10 mM HEPES, pH 7.0) containing 3 μM L-[^14C]-lactate (Perkin Elmer) and 2 μM L-lactate. […] HEPES buffer was replaced with 250 μL test solution. After 1 hour, media was replaced with 500 μL ice-cold stop buffer (0.1 mM CHC solution in HBS, pH 7.4) and the plates were placed on ice. Cells were washed twice with ice-cold stop buffer and solubilized using 250 μL of 0.1 M NaOH in 5% Triton-X (Millipore Sigma). A 150 μL aliquot from each well was added to 4 mL EcoLite(+)™ scintillation fluid (MP Biomedicals) and radioactivity was determined by scintillation spectrometry. Inhibition by each test solution was calculated as a percentage of the maximum control uptake. CHC and dimethylsulfoxide (DMSO) were used as controls. […]

[6] = test system: WiDr cells; test: SRB cell proliferation inhibition assay, WiDr; assay type: cell-based; details: Homo sapiens, 72 hours, average ± sem
Procedure: (§3) MDA-MB-231 cells (ATCC, 2015) were grown in DMEM supplemented with 10% FBS and penicillin-streptomycin (50 U/ml, 50 μg/ml, Invitrogen). WiDr cells (ATCC, 2017) were cultured in MEM medium supplemented with 10% FBS (Atlanta Biologicals) and penicillin-streptomycin (50 U/ml, 50 μg/ml). For in vitro experiments, after seeding, cells were incubated at 37°C in 5% CO2 for 18–24 hours before the addition of test compounds.
(§4) Cells (5 × 10^4 cells/mL) were cultured in 48-well plates. Test compounds were dissolved in DMSO (final concentration of DMSO is <0.1%) and were added to culture wells at various concentrations in replicate and incubated for 72 hours. Growth medium was removed and the wells were washed with PBS and dried. SRB (0.5% in 1% acetic acid) was added to the wells and incubated for 30–45 minutes. The wells were washed 3 times with 1% acetic acid and dried. The cellular protein was dissolved in trizma base (10 mM, pH 10.2) and absorbance was recorded at 540 nm. Percent survival was calculated using the formula %Survival=Abstest compound/Abscontrol×100 .

[7] = test system: MCT1; details: RBE4 cells, cited from earlier work
[8] = test system: MDA-MB-231 cells; test: SRB cell proliferation inhibition assay, MDA-MB-231; assay type: cell-based; details: Homo sapiens, 72 hours, average ± sem
Procedure: as §3, §4

[9] = test system: MDA-MB-231 tumor xenograft; test: Tumor growth inhibition, MDA-MB-231 xenograft model; assay type: in vivo; details: SCID mice
Procedure: Figure 6 In vivo xenograft studies in WiDr and MDA-MB-231 tumor models (A) WiDr tumor xenograft study of compound 3 and compound 9. Mice (n = 8) were treated with 8 mg/kg of compound 3, intraperitoneally, two times a day. (B) Tumor growth inhibition study with compound 9 in MDA-MB-231 tumor xenograft model (n = 6). Mice were treated with compound 9 (70 mg/kg, ip, bid until day-4; qd from day-5), a combination of 9 and doxorubicin (0.5 mg/kg, ip, five days a week), and doxorubicin. (C) Tumor growth inhibition based on isolated tumor mass. ^*P < 0.05, ^**P < 0.01, ^***P < 0.001, ^****P < 0.0001. Schematic representation of (D) untreated tumor cells and (E) inhibition of MCT1 and MCT4 and decreased glycolysis and mitochondrial OxPhos in compound 9 treated tumor cells. Upward hollowed arrow indicates “increase” in function/amount and downward hollowed arrow indicates “decrease” in function/amount.
Group-1 was administered with compound 9, group-2 was given a combination of compound 9 and clinical breast cancer drug doxorubicin (AKSci catalog # E518), and group-3 was treated with doxorubicin alone. Group-4 was assigned as a control group and treated with vehicle (10% DMSO in saline). The treatment was continued up to 18 days and on day 20, the mice were euthanized and tumor masses isolated and weighed. […] Due to these reasons, higher dosages of compound 9 were required to produce significant anticancer efficacy in vivo. In all these studies, <20% of body weight loss was observed.
Tumor cells suspended in 1:1 matrigel-PBS were injected on right flank of female SCID mice (n = 6 mice/group, 10^7 MDA-MB-231 cells) or right flank of female athymic nude mice (n = 8 mice/group, 5 × 10^6 WiDr cells). Tumors were measured using calipers every 2–3 days and tumor volumes were calculated using the formula V = ab^2/2 where ‘a’ is the long diameter of the tumor and ‘b’ is the short diameter of the tumor. Tumor growth inhibition was determined using the formula % inhibition = [(C – T)/C] × 100 where C is average tumor weight of the control group and T is the average tumor weight of the test group.

[10] = Supplementary Table 1, average ± SEM, read-out: MCT4 IC50
[11] = Supplementary Table 1, average ± SEM

Compound: Cc1[nH]nc(C(F)(F)F)c1Cc1sc2c(c1C(=O)N1C[C@](C)(O)CO1)c(=O)n(C)c(=O)n2C(C)C [AZD3965, reference compound]
- ATP production (MST, OCR) [1]: did not affect
- maximal respiration (MST, OCR) [1]: did not affect
- proton leak (MST, OCR) [1]: did not affect
- spare respiratory capacity (MST, OCR) [1]: did not affect
- ATP production (MST, OCR) [2]: did not affect
- maximal respiration (MST, OCR) [2]: did not affect
- proton leak (MST, OCR) [2]: did not affect
- spare respiratory capacity (MST, OCR) [2]: did not affect
- glycolysis (GST, ECAR) [3]: did not show any glycolysis inhibition
- glycolytic capacity (GST, ECAR) [3]: decreased glycolytic capacity only in WiDr
- glycolytic reserve (GST, ECAR) [3]: decreased glycolytic reserve only in MCT1 expressing WiDr
- glycolytic capacity (GST, ECAR) [4]: decreased
- glycolytic reserve (GST, ECAR) [4]: decreased

Compound: C=CCN(CC=C)c1ccc(/C=C(\C#N)C(=O)O)c(OC)c1 [Allyl (2)]
- IC50 ([5]; Figure 1A and text, lactate uptake, read-out: MCT4 IC50): 0.028 µM
- IC50 [5, 10]: 0.024 ± 0.006 µM
- IC50 [6]: > 25 µM
- IC50 [7, 11]: 0.029 ± 0.002 µM
- IC50 [8]: > 25 µM

Compound: COc1cc(N(Cc2ccccc2)Cc2ccccc2)ccc1/C=C(\C#N)C(=O)O [Benzyl (8)]
- IC50 [5, 10]: 0.032 ± 0.003 µM
- IC50 [6]: > 25 µM
- IC50 ([7]; Figure 1A and text, lactate uptake): 0.037 µM
- IC50 [7, 11]: 0.025 ± 0.003 µM
- IC50 [8]: > 25 µM

Compound: CCCCN(CCCC)c1ccc(/C=C(\C#N)C(=O)O)c(OC)c1 [Butyl (3)]
- ATP production (MST, OCR) [1]: decreased
- maximal respiration (MST, OCR) [1]: decreased
- spare respiratory capacity (MST, OCR) [1]: decreased
- IC50 [5, 10]: 0.014 ± 0.002 µM
- ATP production (MST, OCR) [2]: decreased
- maximal respiration (MST, OCR) [2]: decreased
- spare respiratory capacity (MST, OCR) [2]: decreased
- IC50 [6]: > 25 µM
- glycolytic capacity (GST, ECAR) [4]: significant decrease
- glycolytic reserve (GST, ECAR) [4]: significant decrease
- IC50 [8]: > 25 µM

Compound: N#CC(=Cc1ccc(O)cc1)C(=O)O [CHC, α-cyano-4-hydroxy cinnamic acid, reference compound]
- ATP production (MST, OCR) [1]: did not affect
- maximal respiration (MST, OCR) [1]: did not affect
- proton leak (MST, OCR) [1]: did not affect
- spare respiratory capacity (MST, OCR) [1]: did not affect
- IC50 ([5]; MCT4 IC50, CHC, lactate uptake): ≥ 150 µM
- ATP production (MST, OCR) [2]: did not affect
- maximal respiration (MST, OCR) [2]: did not affect
- proton leak (MST, OCR) [2]: did not affect
- spare respiratory capacity (MST, OCR) [2]: did not affect
- IC50 ([7]; CHC, lactate uptake): ≥ 150 µM
- glycolysis (GST, ECAR) [3]: did not affect
- glycolytic capacity (GST, ECAR) [3]: did not affect
- glycolytic reserve (GST, ECAR) [3]: decreased glycolytic reserve only in MCT1 expressing WiDr
- glycolysis (GST, ECAR) [4]: did not affect
- glycolytic capacity (GST, ECAR) [4]: did not affect
- glycolytic reserve (GST, ECAR) [4]: decreased

Compound: COc1cc(N(CC(C)C)CC(C)C)ccc1/C=C(\C#N)C(=O)O [Isobutyl (4)]
- IC50 [5, 10]: 0.017 ± 0.002 µM
- IC50 [6]: > 25 µM
- IC50 [7, 11]: 0.011 ± 0.004 µM
- IC50 [8]: > 25 µM

Compound: CCCCCN(CCCCC)c1ccc(/C=C(\C#N)C(=O)O)c(OC)c1 [Pentyl (5)]
- IC50 [5, 10]: 0.085 ± 0.008 µM
- IC50 [6]: > 25 µM
- IC50 [7, 11]: 0.034 ± 0.007 µM
- IC50 [8]: > 25 µM

Compound: COc1cc(N2CCCCC2)ccc1/C=C(\C#N)C(=O)O [Piperidinyl (7)]
- IC50 [5, 10]: 0.058 ± 0.013 µM
- IC50 [6]: > 25 µM
- IC50 [7, 11]: 0.025 ± 0.005 µM
- IC50 [8]: > 25 µM

Compound: CCCN(CCC)c1ccc(/C=C(\C#N)C(=O)O)c(OC)c1 [Propyl (1)]
- IC50 [5, 10]: 0.011 ± 0.001 µM
- IC50 [6]: > 25 µM
- IC50 [7, 11]: 0.012 ± 0.001 µM
- IC50 [8]: > 25 µM

Compound: COc1cc(N2CCCC2)ccc1/C=C(\C#N)C(=O)O [Pyrrolidinyl (6)]
- IC50 [6]: > 25 µM
- IC50 [8]: > 25 µM

Compound: COc1cccc2c1C(=O)c1c(O)c3c(c(O)c1C2=O)C[C@@](O)(C(=O)CO)C[C@@H]3O[C@H]1C[C@H](N)[C@H](O)[C@H](C)O1 [doxorubicin, reference compound]
- tumor growth inhibition based on tumor volume ([9]; 9 70 mg/kg ip bid until day-4, qd from day-5, doxorubicin 0.5 mg/kg ip five days a week, treatment up to 18 days): 48%
- tumor growth inhibition based on isolated tumor weights ([9]; same regimens, tumors isolated on day 20): 52%
